The subject of data set [1] is Peptic ulcer due to pyloric ligation. As to the kind of experiment: Effect on peptic ulcer due to pyloric ligation. The format is in vivo, male rats. The following applies: intraperitoneal, rats; for Ulcer coefficient: 100 mg/kg, just after ligation, 15 hours; for inhibition in vivo at 100 mg/kg: Rattus norvegicus, ip, 15 h, control ulcer coefficient 42.0 mm^2, read-out: Rate of suppression of ulcer. The procedure:
Just after subjecting to ligation, each of the present compound suspended in an aqueous physiological saline solution was intraperitoneally administered to each rat, the control being injected with an aqueous physiological saline solution. Then, after 15 hours of fasting without taking water, the rats were sacrificed with ether and their stomachs were removed to examine under a microscope for anatomy. The length and width of the thus-formed ulcer in the stomach were determined and expressed by the product (mm^2), and the total sum of the products was represented as the ulcer coefficient.

For data set [2], the system named is Peptic ulcer due to acetic acid. The data set can be described thus: Effect on peptic ulcer due to acetic acid (duodenal). The format is in vivo, male rats. Conditions: for Ulcer coefficient: orally 3 times a day for 10 days from third day; for inhibition in vivo at 100 mg/kg: Rattus norvegicus, po, 240 h, read-out: Rate of suppression of ulcer. As to the method: To the control group, only the aqueous physiological saline solution was administered. After the administration was over, the rats were sacrificed with ether, and their duodenum was removed to observe under a microscope for anatomy. The length and width of the thus-formed ulcer were measured and their product (expressed with mm^2) was recorded as the ulcer coefficient.

Data set [3] concerns peptic ulcer. The following applies: cited from earlier work.
The nature of data set [4]: Acute toxicity test, oral. Conditions: mouse, in vivo, p.o., female ICR-mice, mortality for a week, Litchfield-Wilcoxon. As to the method: Ten animals per group were kept in a transparent polycage at room temperature of 23°±1° C., and RH of 60 to 70%.
After minutely pulverizing each one of the present compounds, the pulverized compound was suspended in an aqueous 5% sodium carboxymethylcellulose solution containing 20% of Tween-80. The aqueous suspension was forcibly orally administered by a metal stomach tube, the dose rate having been adjusted by changing the concentration of the present compound in the aqueous suspension.

The mark [5] stands for this setting: 100 mg/kg, orally 3 times a day for 10 days, rats, control ulcer coefficient 9.0 mm^2.

SMILES strings stand for the structures. Read-outs that look alike come from different tables or passages of the source.

`CCCNC(=O)c1sc(-c2ccccc2OC)nc1C` [Compound 8, 2-(2-methoxyphenyl)-4-methylthiazole-5-n-propylcarboxamide]: the Ulcer coefficient was 9.0 mm^2 in data set [1] and 3.2 mm^2 in data set [2] (100 mg/kg, rats). For the same molecule, the inhibition in vivo at 100 mg/kg stood at 78.6% in data set [1] and 64.4% in data set [2] (setting [5]).

Consider `COc1ccccc1-c1nc(C)c(C(N)=O)s1` [Compound 6, 2-(2-methoxyphenyl)-4-methylthiazole-5-carboxamide], for which the Ulcer coefficient was 1.2 mm^2 in data set [1] and 2.1 mm^2 in data set [2] (100 mg/kg, rats). The inhibition in vivo at 100 mg/kg is 97.1% in data set [1] and 76.7% in data set [2] (setting [5]).

Consider `CC1(C)[C@@H](OC(=O)CCC(=O)O)CC[C@]2(C)[C@H]3C(=O)C=C4[C@@H]5C[C@@](C)(C(=O)O)CC[C@]5(C)CC[C@@]4(C)[C@]3(C)CC[C@@H]12` [carbenoxolone], for which the “Accelerating effect on the ulcer-curing” value in data set [3] (background statement) is recorded as “excellent accelerating effect on the ulcer-curing”. Besides, in data set [3] (in vivo), the Side effects entry was “aldosterone-like side effects to cause hypertension and weakening of muscular function”.

Regarding `CNC(=O)c1sc(-c2ccccc2OC)nc1C` [Compound 7, 2-(2-methoxyphenyl)-4-methylthiazole-5-methylcarboxamide], the Ulcer coefficient was found to be 8.6 mm^2 in data set [1] and 1.7 mm^2 in data set [2] (100 mg/kg, rats). The inhibition in vivo at 100 mg/kg worked out at 79.5% in data set [1] and 81.1% in data set [2] (setting [5]).

As for `CCCNC(=O)c1sc(-c2ccc(OC)c(OC)c2)nc1C` [Compound 5, 2-(3,4-dimethoxyphenyl)-4-methylthiazole-5-n-propylcarboxamide], the Ulcer coefficient came to 8.4 mm^2 in data set [1] and 2.9 mm^2 in data set [2] (100 mg/kg, rats). In addition, the results for the inhibition in vivo at 100 mg/kg in data set [1] and in data set [2] (setting [5]) were 80% and 67.8%, respectively.

For `COc1ccc(-c2nc(C)c(C(N)=O)s2)cc1OC` [Compound 3, 2-(3,4-dimethoxyphenyl)-4-methylthiazole-5-carboxamide], the Ulcer coefficient in data set [1] amounted to 0.8 mm^2; in data set [2] (100 mg/kg, rats), 1.3 mm^2. Besides, the inhibition in vivo at 100 mg/kg stood at 98.1% in data set [1] and 85.6% in data set [2].

Regarding `CNC(=O)c1sc(-c2ccc(OC)cc2)nc1C` [Compound 10, 2-(4-methoxyphenyl)-4-methylthiazole-5-methylcarboxamide], the Ulcer coefficient in data set [1] was found to be 6.4 mm^2; in data set [2] (100 mg/kg, rats) it was 3.1 mm^2. In addition, the values for the inhibition in vivo at 100 mg/kg in data set [1] and in data set [2] (setting [5]) were 84.8% and 65.6%, respectively.

`COc1ccc(-c2nc(C)c(C(N)=O)s2)cc1` [Compound 9, 2-(4-methoxyphenyl)-4-methylthiazole-5-carboxyamide]: the Ulcer coefficient in data set [1] was 0.9 mm^2; in data set [2] (100 mg/kg, rats), 2.0 mm^2. Moreover, the values for the inhibition in vivo at 100 mg/kg in data set [1] and in data set [2] (setting [5]) were 97.9% and 77.8%, respectively.

For `CC(C)=CCCC(C)=CCCC(C)=CCCC(=O)OCC=C(C)CCC=C(C)C` [Gefarnate, 3,7dimethyl-2,6-octadienyl 5,9,13trimethyl-4,8,12-tetradecatrienoate, reference compound], the Ulcer coefficient in data set [1] amounted to 36.9 mm^2; in data set [2] (100 mg/kg, rats) it was 7.2 mm^2. The inhibition in vivo at 100 mg/kg in data set [1] was determined as 12.1%; in data set [2] (setting [5]) it was 20%. Moreover, the “Effectiveness / curative effect” value in data set [2] (in words, rats) is “only a slight effectiveness is recognized”.

In the case of `CNC(=O)c1sc(-c2ccc(OC)c(OC)c2)nc1C` [Compound 4, 2-(3,4-dimethoxyphenyl)-4-methylthiazole-5-methylcarboxamide], the Ulcer coefficient in data set [1] was 11.0 mm^2; in data set [2] (100 mg/kg, rats), 1.8 mm^2. For the same molecule, the inhibition in vivo at 100 mg/kg in data set [1] stood at 73.8%; in data set [2] (setting [5]), 80%.

With `CNC(=O)c1sc(-c2cc(OC)c(OC)c(OC)c2)nc1C` [Compound 1, 2-(3,4,5-trimethoxyphenyl)-4-methylthiazole-5-methylcarboxamide], the Ulcer coefficient in data set [1] is reported as 14.7 mm^2; in data set [2] (100 mg/kg, rats), 3.1 mm^2. The figures for the inhibition in vivo at 100 mg/kg in data set [1] and in data set [2] (setting [5]) were 65% and 65.6%, respectively.

`CCCNC(=O)c1sc(-c2ccc(OC)cc2)nc1C` [Compound 11, 2-(4-methoxyphenyl)-4-methylthiazole-5-n-propylcarboxamide]: the Ulcer coefficient in data set [1] is reported as 8.5 mm^2; in data set [2] (100 mg/kg, rats) it was 2.5 mm^2. Further, the figures for the inhibition in vivo at 100 mg/kg in data set [1] and in data set [2] (setting [5]) were 79.8% and 72.2%, respectively.

On to `CCCNC(=O)c1sc(-c2cc(OC)c(OC)c(OC)c2)nc1C` [Compound 2, 2-(3,4,5-trimethoxyphenyl)-4-methylthiazole-5-n-propylcarboxamide], for which the Ulcer coefficient worked out at 6.3 mm^2 in data set [1] and 2.7 mm^2 in data set [2] (100 mg/kg, rats). Besides, the inhibition in vivo at 100 mg/kg in data set [1] was 85%; in data set [2] (setting [5]) it was 70%. This molecule gave a median lethal dose (LD50) at 168 h in data set [4] of 5600 mg/kg.

As usually defined, the LD50 is the dose expected to kill half of the subjects tested. Low values mean a more toxic substance, high ones a less toxic substance.

Values taken from patent publication US4558059A, “2-Substituted-phenylthiazole derivatives” (priority 1980, dated 1985).
